Numbers after ± are expanded uncertainties.
Conditions: Liquid, Vibrating tube method

CCCCCCO [hexan-1-ol]
Conditions	mass density [kg/m3]
293.15 K, 100 kPa	818.6 ± 1
293.15 K, 10000 kPa	824.8 ± 1
293.15 K, 20000 kPa	830.9 ± 1
293.15 K, 30000 kPa	836.4 ± 1
293.15 K, 40000 kPa	841.6 ± 1
293.15 K, 50000 kPa	846.5 ± 1.1
293.15 K, 60000 kPa	851.1 ± 1.1
293.15 K, 70000 kPa	855.5 ± 1.1
293.15 K, 80000 kPa	859.8 ± 1.1
293.15 K, 90000 kPa	863.7 ± 1.1
293.15 K, 100000 kPa	867.9 ± 1.1
293.15 K, 110000 kPa	871.5 ± 1.2
293.15 K, 120000 kPa	875.2 ± 1.2
293.15 K, 130000 kPa	878.7 ± 1.2
293.15 K, 140000 kPa	882.2 ± 1.2
303.15 K, 100 kPa	811.5 ± 1
303.15 K, 10000 kPa	818.2 ± 1
303.15 K, 20000 kPa	824.1 ± 1
303.15 K, 30000 kPa	830 ± 1
303.15 K, 40000 kPa	835.1 ± 1.1
303.15 K, 50000 kPa	840.5 ± 1.1
303.15 K, 60000 kPa	845.3 ± 1.1
303.15 K, 70000 kPa	849.8 ± 1.1
303.15 K, 80000 kPa	854.2 ± 1.1
303.15 K, 90000 kPa	858.4 ± 1.1
303.15 K, 100000 kPa	862.4 ± 1.1
303.15 K, 110000 kPa	866.3 ± 1.2
303.15 K, 120000 kPa	870 ± 1.2
303.15 K, 130000 kPa	873.6 ± 1.2
303.15 K, 140000 kPa	877.1 ± 1.2
313.15 K, 100 kPa	804.2 ± 1
313.15 K, 10000 kPa	811.1 ± 1
313.15 K, 20000 kPa	817.4 ± 1
313.15 K, 30000 kPa	823.5 ± 1
313.15 K, 40000 kPa	829 ± 1.1
313.15 K, 50000 kPa	834.4 ± 1.1
313.15 K, 60000 kPa	839.4 ± 1.1
313.15 K, 70000 kPa	844.3 ± 1.1
313.15 K, 80000 kPa	848.7 ± 1.1
313.15 K, 90000 kPa	853.1 ± 1.1
313.15 K, 100000 kPa	857.1 ± 1.2
313.15 K, 110000 kPa	861.2 ± 1.2
313.15 K, 120000 kPa	865.1 ± 1.2
313.15 K, 130000 kPa	868.7 ± 1.2
313.15 K, 140000 kPa	872.5 ± 1.2
323.15 K, 100 kPa	797.3 ± 1
323.15 K, 10000 kPa	804.5 ± 1
323.15 K, 20000 kPa	811.2 ± 1
323.15 K, 30000 kPa	817.4 ± 1
323.15 K, 40000 kPa	823.3 ± 1.1
323.15 K, 50000 kPa	828.7 ± 1.1
323.15 K, 60000 kPa	833.8 ± 1.1
323.15 K, 70000 kPa	838.5 ± 1.1
323.15 K, 80000 kPa	843.1 ± 1.1
323.15 K, 90000 kPa	847.6 ± 1.2
323.15 K, 100000 kPa	851.8 ± 1.2
323.15 K, 110000 kPa	856 ± 1.2
323.15 K, 120000 kPa	860 ± 1.2
323.15 K, 130000 kPa	863.7 ± 1.2
323.15 K, 140000 kPa	867.3 ± 1.2
333.15 K, 100 kPa	789.7 ± 1
333.15 K, 10000 kPa	797.2 ± 1
333.15 K, 20000 kPa	804.3 ± 1
333.15 K, 30000 kPa	810.8 ± 1
333.15 K, 40000 kPa	817 ± 1.1
333.15 K, 50000 kPa	822.7 ± 1.1
333.15 K, 60000 kPa	828 ± 1.1
333.15 K, 70000 kPa	832.8 ± 1.1
333.15 K, 80000 kPa	837.6 ± 1.1
333.15 K, 90000 kPa	842.5 ± 1.2
333.15 K, 100000 kPa	846.8 ± 1.2
333.15 K, 110000 kPa	850.8 ± 1.2
333.15 K, 120000 kPa	854.4 ± 1.2
333.15 K, 130000 kPa	858.5 ± 1.2
333.15 K, 140000 kPa	862.2 ± 1.3
343.15 K, 100 kPa	781.9 ± 1
343.15 K, 10000 kPa	790.2 ± 1
343.15 K, 20000 kPa	797.6 ± 1
343.15 K, 30000 kPa	804.4 ± 1
343.15 K, 40000 kPa	810.6 ± 1.1
343.15 K, 50000 kPa	816.4 ± 1.1
343.15 K, 60000 kPa	822.1 ± 1.1
343.15 K, 70000 kPa	827.3 ± 1.1
343.15 K, 80000 kPa	832.1 ± 1.1
343.15 K, 90000 kPa	836.9 ± 1.2
343.15 K, 100000 kPa	841.4 ± 1.2
343.15 K, 110000 kPa	845.7 ± 1.2
343.15 K, 120000 kPa	849.7 ± 1.2
343.15 K, 130000 kPa	853.6 ± 1.3
343.15 K, 140000 kPa	857.5 ± 1.3
353.15 K, 100 kPa	773.8 ± 1
353.15 K, 10000 kPa	782.3 ± 1
353.15 K, 20000 kPa	790.1 ± 1
353.15 K, 30000 kPa	797.3 ± 1.1
353.15 K, 40000 kPa	803.8 ± 1.1
353.15 K, 50000 kPa	810 ± 1.1
353.15 K, 60000 kPa	815.6 ± 1.1
353.15 K, 70000 kPa	821 ± 1.1
353.15 K, 80000 kPa	826.2 ± 1.2
353.15 K, 90000 kPa	831.1 ± 1.2
353.15 K, 100000 kPa	835.6 ± 1.2
353.15 K, 110000 kPa	840 ± 1.2
353.15 K, 120000 kPa	844.3 ± 1.2
353.15 K, 130000 kPa	848.4 ± 1.3
353.15 K, 140000 kPa	852.3 ± 1.3
363.15 K, 100 kPa	765.5 ± 1
363.15 K, 10000 kPa	774.9 ± 1
363.15 K, 20000 kPa	783.1 ± 1
363.15 K, 30000 kPa	790.6 ± 1.1
363.15 K, 40000 kPa	797.5 ± 1.1
363.15 K, 50000 kPa	803.8 ± 1.1
363.15 K, 60000 kPa	809.7 ± 1.1
363.15 K, 70000 kPa	815.4 ± 1.1
363.15 K, 80000 kPa	820.6 ± 1.2
363.15 K, 90000 kPa	825.6 ± 1.2
363.15 K, 100000 kPa	830.3 ± 1.2
363.15 K, 110000 kPa	834.8 ± 1.2
363.15 K, 120000 kPa	839.2 ± 1.3
363.15 K, 130000 kPa	843.3 ± 1.3
363.15 K, 140000 kPa	847.2 ± 1.3
373.15 K, 100 kPa	756.9 ± 7.5
373.15 K, 10000 kPa	766.6 ± 1
373.15 K, 20000 kPa	775.4 ± 1
373.15 K, 30000 kPa	783.4 ± 1.1
373.15 K, 40000 kPa	790.4 ± 1.1
373.15 K, 50000 kPa	796.9 ± 1.1
373.15 K, 60000 kPa	803.1 ± 1.1
373.15 K, 70000 kPa	808.9 ± 1.2
373.15 K, 80000 kPa	814.2 ± 1.2
373.15 K, 90000 kPa	819.5 ± 1.2
373.15 K, 100000 kPa	824.4 ± 1.2
373.15 K, 110000 kPa	829.2 ± 1.3
373.15 K, 120000 kPa	833.3 ± 1.3
373.15 K, 130000 kPa	837.7 ± 1.3
373.15 K, 140000 kPa	841.7 ± 1.3
383.15 K, 100 kPa	748.2 ± 7.5
383.15 K, 10000 kPa	759.1 ± 1
383.15 K, 20000 kPa	767.8 ± 1
383.15 K, 30000 kPa	776.5 ± 1.1
383.15 K, 40000 kPa	783.5 ± 1.1
383.15 K, 50000 kPa	790.4 ± 1.1
383.15 K, 60000 kPa	796.8 ± 1.1
383.15 K, 70000 kPa	802.6 ± 1.2
383.15 K, 80000 kPa	808.3 ± 1.2
383.15 K, 90000 kPa	813.7 ± 1.2
383.15 K, 100000 kPa	818.7 ± 1.2
383.15 K, 110000 kPa	823.4 ± 1.3
383.15 K, 120000 kPa	828 ± 1.3
383.15 K, 130000 kPa	832.3 ± 1.3
383.15 K, 140000 kPa	836.5 ± 1.3
393.15 K, 100 kPa	739.4 ± 7.2
393.15 K, 10000 kPa	750.8 ± 1
393.15 K, 20000 kPa	760.5 ± 1
393.15 K, 30000 kPa	768.8 ± 1.1
393.15 K, 40000 kPa	777 ± 1.1
393.15 K, 50000 kPa	783.7 ± 1.1
393.15 K, 60000 kPa	790.3 ± 1.1
393.15 K, 70000 kPa	796.5 ± 1.2
393.15 K, 80000 kPa	802.5 ± 1.2
393.15 K, 90000 kPa	807.8 ± 1.2
393.15 K, 100000 kPa	813 ± 1.3
393.15 K, 110000 kPa	818.1 ± 1.3
393.15 K, 120000 kPa	822.6 ± 1.3
393.15 K, 130000 kPa	827.2 ± 1.3
393.15 K, 140000 kPa	831.5 ± 1.4
403.15 K, 100 kPa	730.2 ± 7.2
403.15 K, 10000 kPa	741.8 ± 1
403.15 K, 20000 kPa	751.9 ± 1
403.15 K, 30000 kPa	761.1 ± 1.1
403.15 K, 40000 kPa	769.3 ± 1.1
403.15 K, 50000 kPa	776.9 ± 1.1
403.15 K, 60000 kPa	783.7 ± 1.2
403.15 K, 70000 kPa	790.1 ± 1.2
403.15 K, 80000 kPa	796.2 ± 1.2
403.15 K, 90000 kPa	801.8 ± 1.2
403.15 K, 100000 kPa	807.2 ± 1.3
403.15 K, 110000 kPa	812.3 ± 1.3
403.15 K, 120000 kPa	817.1 ± 1.3
403.15 K, 130000 kPa	821.8 ± 1.4
403.15 K, 140000 kPa	826.5 ± 1.4
